Tests used:
in vitro = details: human, Caco-2
Protocol: Caco-2 cells are used as an in vitro model of the human intestinal epithelium and permit assessment of the intestinal permeability of potential drugs. Vancomycin is added to either the apical or basolateral side of a confluent monolayer of Caco-2 cells and permeability is measured by monitoring the appearance of the Vancomycin on the opposite side of the monolayer using LC-MS/MS. When performing a bi-directional assay, the efflux ratio (ER) is calculated from the ratio of B->A and A->B permeabilities.
The permeability measure of vancomycin in the apical to basolateral (A->B) and basolateral to apical (B->A) direction across Caco-2 cells, and to determine the efflux ratio.

Clostridium difficile = assay: Agar dilution MIC of vancomycin preparations (Sigma, Cutis), diluent, Na benzoate and Na citrate; type: cell-based; details: tested separately at concentrations exceeding those present in the diluent
Protocol: Introduction: The purpose of the study was to compare the MICs obtained with the formulation of vancomycin HCL of the invention (Cutis) to formulations obtained using a vancomycin HCL reference standard powder obtained from Sigma. The Example also involves the analysis of a solution or diluent to determine if it has antimicrobial activity at the concentrations present in the agar dilution test.
The C. difficile were tested by agar dilution according to the procedures in the Clinical and Laboratory Standards Institute. 2012. Methods for antimicrobial susceptibility testing of anaerobic bacteria; approved standard-seventh edition.
Other anaerobic organisms included clinical isolates of Bifidobacterium adolescentis and Bacteroides fragilis. Clostridium difficile ATCC 700057 was included as a quality control strain.
The C. difficile isolates were recovered from patients with CDI during the past two years and stored at −70° C. in 20% skim milk. Ribotyping was performed by another reference laboratory. The strains were taken from the freezer and subcultured at least twice to ensure purity and good growth.
On the day of testing, they were suspended in Brucella broth to the turbidity of the 0.5 McFarland standard for testing.
Stock solution of the Sigma vancomycin was prepared in water and stored at −70° C. On the day of testing, it was thawed and further diluted in water to obtain the desired range of 16-0.125 μg/ml. The Cutis vancomycin (25 mg/ml) was reconstituted on the day of testing and further diluted for a final range of 16-0.125 μg/ml in the test. The antimicrobials were added to molten Brucella agar supplemented with vitamin K and hemin to prepare the plates. Drug-free growth controls were included for testing before and after each set of plates. All testing was done in triplicate.
The organisms were pipetted into the wells of the Steers replicator head and applied to the plates with the multi-pronged replicator. The final concentration of organisms was ˜10^5 CFU/spot.
The plates were incubated in the anaerobic chamber incubator for 44 h and examined for growth.
The Cutis diluent comprises: water, about 0.12% (w/v) citric acid (anhydrous), 0.2% (w/v) sucralose, about 0.05% (w/v) artificial grape flavor, 0.1% (w/v) sodium benzoate, about 0.0002% (w/v) D&C Yellow No. 10 and about 0.000038% (w/v) FD&C Red No. 40.

[1] = tested on: Staphylococcus aureus ATCC 29213; assay: MIC by reference agar dilution method (CLSI M11-A8), quality control strain; type: cell-based; details: Fresh
Protocol: The vancomycin hydrochloride solution of the invention and the IV solution were reconstituted to a concentration of 25 mg/ml. […] The MICs were determined by the reference agar dilution method (CLSI M11-A8). All serial two-fold dilutions were prepared on the same day and added to molten agar to prepare plates.
The in vitro activity was tested for three different preparations of vancomycin freshly reconstituted, and stored at ambient and at refrigerated temperatures. The C. difficile strains were selected to represent the most frequently encountered ribotypes.
Plates were prepared by adding 1 ml of lysed sheep blood and two mls of the twofold dilutions of the vancomycin preparations to molten agar. Plates were mixed, poured and allowed to harden. Suspensions of the organisms were applied to the plates using a Steers replicating device that delivered approximately 10^5 cfu/spot. Each preparation was tested in triplicate. Plates were incubated at 37° C. for 48 h.
Plates were examined for growth.

C. difficile = assay: MIC by reference agar dilution method (CLSI M11-A8) of stored vancomycin preparations; type: cell-based, Clostridium difficile; details: for MIC, average of triplicate: Fresh
[2] = orally-administered; cited from earlier work

SMILES: COCCc1ccc(OCC(O)CNC(C)C)cc1 (stereo not shown) [Metoprolol]
- Papp A→B (in vitro): 11.6 ×10⁻⁶ cm/s
- Papp B→A (in vitro): 30 ×10⁻⁶ cm/s

SMILES: O=C([O-])c1ccccc1.[Na+] [Na benzoate]
- growth inhibition (Clostridium difficile): no inhibition

SMILES: O=C([O-])CC(O)(CC(=O)[O-])C(=O)[O-].[Na+].[Na+].[Na+] [Na citrate]
- growth inhibition (Clostridium difficile): no inhibition

SMILES: CNC(=C[N+](=O)[O-])NCCSCc1ccc(CN(C)C)o1 [Ranitidine]
- Papp A→B (in vitro): 0.3 ×10⁻⁶ cm/s
- Papp B→A (in vitro): 1.5 ×10⁻⁶ cm/s

SMILES: CN[C@H](CC(C)C)C(=O)N[C@H]1C(=O)N[C@@H](CC(N)=O)C(=O)N[C@H]2C(=O)N[C@H]3C(=O)N[C@H](C(=O)N[C@H](C(=O)O)c4cc(O)cc(O)c4-c4cc3ccc4O)[C@H](O)c3ccc(c(Cl)c3)Oc3cc2cc(c3O[C@@H]2O[C@H](CO)[C@@H](O)[C@H](O)[C@H]2O[C@H]2C[C@](C)(N)[C@H](O)[C@H](C)O2)Oc2ccc(cc2Cl)[C@H]1O.Cl [Reference standard]
- MIC, average of triplicate ([1]; ATCC 29213 SA QC (S. aureus)): 2 µg/mL
- vancomycin MIC from triplicate test, best of 3 values ([1]; ATCC 29213 SA QC): 2 µg/mL
- MIC, average of triplicate (C. difficile; ATCC 7000057 QC (C. difficile)): 1 µg/mL
- MIC, average of triplicate (C. difficile; RMA 24504, ribotype 027): 1 µg/mL
- MIC, average of triplicate (C. difficile; RMA 24510, ribotype 027): 1 µg/mL
- MIC, average of triplicate (C. difficile; RMA 24519, ribotype 027): 1 µg/mL
- MIC, average of triplicate (C. difficile; RMA 24527, ribotype 014): 1 µg/mL
- MIC, average of triplicate (C. difficile; RMA 24529, ribotype 014): 1 µg/mL
- MIC, average of triplicate (C. difficile; RMA 24541, ribotype 020): 1 µg/mL
- MIC, average of triplicate (C. difficile; RMA 24543, ribotype 020): 1 µg/mL
- MIC, average of triplicate (C. difficile; RMA 24547, ribotype 014): 1 µg/mL
- MIC, average of triplicate (C. difficile; RMA 24561, ribotype 078): 1 µg/mL
- MIC, average of triplicate (C. difficile; RMA 24567, ribotype 020): 1 µg/mL
- MIC, average of triplicate (C. difficile; RMA 24575, ribotype 078): 1 µg/mL
- MIC, average of triplicate (C. difficile; RMA 24594, ribotype 106): 4 µg/mL
- MIC, average of triplicate (C. difficile; RMA 24601, ribotype 106): 2 µg/mL
- MIC, average of triplicate (C. difficile; RMA 24605, ribotype 002): 1 µg/mL
- MIC, average of triplicate (C. difficile; RMA 24607, ribotype 106): 1 µg/mL
- MIC, average of triplicate (C. difficile; RMA 24608, ribotype 002): 1 µg/mL
- MIC, average of triplicate (C. difficile; RMA 24615, ribotype 005): 2 µg/mL
- MIC, average of triplicate (C. difficile; RMA 24628, ribotype 012): 1 µg/mL
- MIC, average of triplicate (C. difficile; RMA 24641, ribotype 001/072): 1 µg/mL
- MIC, average of triplicate (C. difficile; RMA 24643, ribotype 001/072): 1 µg/mL
- MIC, average of triplicate (C. difficile; RMA 24646, ribotype 001/072): 1 µg/mL
- MIC, average of triplicate (C. difficile; RMA 24655, ribotype 005): 2 µg/mL
- MIC, average of triplicate (C. difficile; RMA 24678, ribotype 012): 4 µg/mL
- MIC, average of triplicate (C. difficile; RMA 24683, ribotype 027): 2 µg/mL
- MIC, average of triplicate (C. difficile; RMA 24690, ribotype 027): 4 µg/mL
- Average MIC (geometric mean, all 25 strains) (C. difficile; reference standard powder stock solution stored at −70 C): 1.5 µg/mL

SMILES: CN[C@H](CC(C)C)C(=O)N[C@H]1C(=O)N[C@@H](CC(N)=O)C(=O)N[C@H]2C(=O)N[C@H]3C(=O)N[C@H](C(=O)N[C@H](C(=O)O)c4cc(O)cc(O)c4-c4cc3ccc4O)[C@H](O)c3ccc(c(Cl)c3)Oc3cc2cc(c3O[C@@H]2O[C@H](CO)[C@@H](O)[C@H](O)[C@H]2O[C@H]2C[C@](C)(N)[C@H](O)[C@H](C)O2)Oc2ccc(cc2Cl)[C@H]1O [vancomycin]
- absorption [2]: cannot be absorbed
- concentrations in the colon [2]: 500 to 1000 µg/mL

From patent publication US20210038515A1 (Azurity Pharmaceuticals, Inc., priority 2014, published 2021)
